Key:
[1] = molecular target: apamin-sensitive potassium channels; test: Binding of ^125 I-apamin to bovine cerebral membrane; settings: ^125 I-apamin 30 pM, calf hippocampus membranes, 60 min on ice
Procedure: (§1) The compounds according to the invention are ligands for apamin-sensitive potassium channels. This can be shown by studying the affinity for apamine binding sites, e.g. in bovine cerebral membranes.
1) Binding of ^125 I-apamin to bovine cerebral membrane
Calf brains were obtained from the local abattoir. The hippocampus was prepared on ice and a membrane suspension was made up by homogenization twice in buffer (100 mM Tris-HCl, KCl 5 mM, pH 7.4) and centrifugation at 43,000×g. In a total volume of 500 μl, the incubation mixture contained 200 μg of membrane protein, 30 pM ^125 I-apamine and test substances in the concentration range 1×10^-9 to […]. The non-specific binding of ^125 I-apamin was determined in the presence of 1×10^-7 M unlabelled apamin.
After preincubation for 30 min at room temperature (test substances and membrane homogenate), the samples were placed on ice for 10 min before the radioligand was added. The main incubation time was 60 min on ice. When the reaction time had elapsed, an excess of ice-cooled incubation buffer was added to each sample and the mixture was filtered with suction through cellulose acetate/nitrate membrane filters. The amount of bound ^125 I-apamin was measured with a gamma counter.

[2] = test system: potassium channel (PC12 cells); test: Non-radioactive Rb^+ efflux assay for the identification of potassium channel modulators; type: cell-based; settings: 50 mM KCl stimulation, 10 min
Procedure: as §1
2) Non-radioactive Rb^+ efflux assay for the identification of potassium channel modulators
The potassium in PC12 cells is exchanged with rubidium, which is not present in the cells. This exchange is performed by incubating the cells over a period of 4 h in a physiological buffer containing 5.4 mM RbCl without KCl. This rubidium subsequently serves as a tracer for potassium.
The cells laden with Rb^+ in this way are washed three times and then stimulated by depolarization with 50 mM KCl to open potassium channels (10 min), causing Rb^+ to flow out of the cells into the supernatant according to the concentration gradient. The rubidium contents in the cell supernatant and in the residual cells after they have been lysed with 1% Triton X-100 are then determined by means of atomic absorption spectroscopy. The relative proportion of rubidium in the cell supernatant (=Rb^+ efflux) is used as a measure of the potassium channel activity.
The effect of substances on the channel activity is measured by co-incubating the test substance over the ten-minute stimulation period and determining its effect on the Rb^+ efflux in the manner described above.

Row | SMILES | Ki [1] [nM] | % inhibition of the Rb efflux at a test concentration of 10 μM [2] [%]
1 | CCN(CC)c1nc(N2CCCN(c3nc(N(CC)CC)c4ccccc4n3)CCC2)nc2ccccc12 [Example 1, 1,5-Bis-(4-diethylaminoquinazolin-2-yl)-[1,5]-diazoxane] | 340 | 
2 | CCN(CC)c1nc(NCC23C=CC(CC2)C2CN(c4nc(N(CC)CC)c5ccccc5n4)CC23)nc2ccccc12.Cl.Cl (stereo not shown) [Example 2, N^2-[4-(4-Diethylamino-quinazolin-2-yl)-4-aza-tricyclo[5.2.2.0^2,6]undec-8-en-1-yl-methyl]-N^4,N^4-diethyl-quinazoline-2,4-diamine dihydrochloride] |  | 72
3 | CCN(CC)c1nc(N2CCCN(c3nc(N(CC)CC)c4ccccc4n3)CC2)nc2ccccc12 [Example 3, 1,4-Bis-(4-diethylamino-2-quinazolyl)-1,4-diazacycloheptane] |  | 63
4 | CCN(CC)c1nc(N2CCCN(c3nc(N(CC)CC)c4cc(Cl)ccc4n3)CC2)nc2ccc(Cl)cc12 [Example 4, 1,4-Bis-(6-chloro-4-diethylamino-2-quinazolyl)-1,4-diazacycloheptane] | 140 | 

— patent US5874438A, “2,2'-bridged bis-2,4-diaminoquinazolines” (Bayer Aktiengesellschaft, priority 1996, dated 1999)
